Data from patent publication US9635879B2, “Sweetener” (Tate & Lyle Ingredients Americas LLC, priority 2013, dated 2017).
Marks after values point to notes of the source that are not given here.

Key:
[1] = Round table sensory evaluation with test panelists: sucrose equivalent value (SEV) against sucrose reference samples; format: in vivo; details: for Sweetness (mean SEV), two-way ANOVA, grouping (Duncan): second Sweetness line, superscripts = Duncan grouping, level of significance 5%
Experimental: Round table evaluations were performed with test panelists. Equal sweet 10 SEV concentrations in neutral pH water were made for allulose, fructose and sucralose, as well as a composition comprising allulose, fructose and sucralose. The components of the test compositions are described in the below tables. The mixed compositions were calculated using the Beidler mixture equation for the sweeteners. The Beidler mixture equation for sweeteners is as follows: […]
The concentration of each component in the mixture in ppm is divided by SEV (c/R) and is plotted against concentration, c. The slope of the linear regression is the maximum SEV (Rmax). The y-intercept of the linear regression multiplied by Rmax is the half-maximal sweetness concentration, 1/K. Rmax and 1/K are the two parameters used in the Beidler equation.
The equal-molar mixture was tested against reference samples for the panelists to determine SEV values. […] The test samples were served in 2 ounce (approximately 60 ml) soufflé cups coded with 3-digit codes at room temperature. A two minute wait period between samples was enforced. Water and unsalted crackers was available for the panelists to clear their palates before and during testing. EyeQuestion was used for ballot development and recording of results. Results were collected in EyeQuestion for calculating approximate SEV level of each test sample. The test products analyzed in this experiment are described below in Table 1.

[2] = times as sweet as sucrose; cited from earlier work
[3] = neutral pH water, room temperature, samples made to equal sweet 10 SEV, references 4-14% sucrose

| Structure (SMILES) | Mean sucrose equivalent value (SEV) (Mean 1) [1, 3] | Sweetness (mean SEV), two-way ANOVA, grouping (Duncan) [1] | Sweetness relative to sucrose [2] | Sweetness (mean SEV), two-way ANOVA, level of significance (Duncan) ([1]; first Sweetness line, superscripts = level of significance (Duncan)) | Median sucrose equivalent value (SEV) (Median 1) [1, 3] |
| --- | --- | --- | --- | --- | --- |
| O=C(CO)C(O)C(O)C(O)CO (stereo not drawn) [Allulose, allulose] | 10.14 | 10.14^b-c |  |  |  |
| O=C(CO)[C@@H](O)[C@H](O)[C@H](O)CO [Fructose, fructose] | 10.14 | 10.14^b-c |  |  |  |
| OC[C@H]1O[C@H](O[C@]2(CCl)O[C@H](CCl)[C@@H](O)[C@@H]2O)[C@H](O)[C@@H](O)[C@H]1Cl [Sucralose, sucralose] | 9.286 | 9.29^c | approximately 600 times | 9.29 | 10 |
